These results are taken from paper PMC6355809, “Proteinaceous Nano container Encapsulate Polycyclic Aromatic Hydrocarbons” (Scientific Reports, 2019).

Data set [1] has as its target T1, RHCC-NT (Staphylothermus marinus, UniProt Q54436). The data set is described as follows: Fluorescence binding assay (steady-state titration of PAH with RHCC-NT). Particulars: for ∆G, molar Gibbs free energy for the ligand binding: ∆G = RT ln (Kd); for Fluorescence intensity at 350 nm (λexc = 275 nm): 4 µM naphthalene; for binding to RHCC-NT / concentration dependent fluorescence changes: result in words. Here is the method: Fluorescence assays were used to examine the binding of RHCC-NT to PAHs as they allow discrimination between PAHs in solution and those bound to the RHCC-NT, as well as the ability to monitor PAH uptake as a function of time (Fig. 2). […] In order to minimize contributions from tyrosine fluorescence, the fluorescence emission at 350 nm was used to determine the binding affinity of naphthalene to RHCC-NT (Table 1).
Initial binding screens were performed by titrating known amounts of a single PAH with varying amounts of RHCC-NT. All assays were performed in 20 mM sodium phosphate solution containing 1% ethanol buffered at pH 7 and adjusted to 150 mM ionic strength. All samples were prepared in triplicate to a final volume of 1 mL and were left to incubate overnight at 25 °C to ensure complete equilibration. PAH fluorescence was then measured as a function of RHCC-NT concentration. Steady-state fluorescence spectra were collected using Fluorolog-3 Horiba Jobin Yvon spectrofluorometer (Edison, NJ). Excitation wavelength was set to 275 nm for naphthalene, 300 nm for acenaphthene, 350 nm for anthracene, 334 nm for chrysene and pyrene, 290 nm for acenaphthylene and fluorene. Excitation and emission slits were set to 1 nm band pass resolution. All samples were measured at 20 °C in a 10 × 3 mm^2 quartz cuvette. The obtained fluorescence data was used to calculate the binding constant Kd assuming that each PAH binds to one of two equal bindings sites in the RHCC-NT, cavity 2 or 3. The fraction of PAH bound and the concentration of unbound RHCC-NT was determined based on the following equation:1 Fractionbound=y=F−F0/F∞−F0=Bmax[RHCCfree]/Kd+[RHCCfree] where F is the experimental fluorescence signal of each sample, F∞ is the fluorescence of the PAH at infinite protein concentration, F0 is the fluorescence of the free PAH in solution, Bmax is a constant and equal to 1. The y values thus obtained were plotted as a function of free RHCC concentrations. The plotted data were then fit to Equation (1) using Sigma Plot 13 (Point Richmond, CA), yielding the binding constant Kd for each PAH bound to RHCC-NT[27].

Data set [2] concerns the target T1, RHCC-NT. The data set is described as follows: Time-scale binding assay (uptake of PAH by RHCC-NT, fluorescence). Particulars: for time to reach equilibrium: under the conditions of the pyrene time-scale study (10 °C), data not shown; for Py-value (ratio of fluorescence emission intensities of Band I/III): 2 µM pyrene, 70 µM RHCC. An excerpt: To probe the uptake kinetics of low MW PAHs, we examined the fluorescence characteristics of pyrene in solvent in comparison to RHCC-NT bound pyrene (Fig. 4). As the bulkiest of the PAHs tested, it is expected that pyrene provides an upper bound on the equilibration time of these low MW PAHs. We took advantage of the major vibronic bands (I and III) of pyrene with defined peaks at ~373 and 384 nm[11],[12]. […] The ratio of the fluorescence emission intensities of Band I/III is defined as Py-value[13],[14] and can be employed to detect polarity in the vicinity of the probed microenvironment.
The time-scale assay was set-up by addition of pyrene to a 35-fold molar excess of RHCC in 20 mM sodium phosphate solution buffered at pH 7 and adjusted to 150 mM ionic strength. Both solutions were equilibrated to 10 °C prior to the assay. Data was collected on a Fluorolog-3 Horiba Jobin Yvon Spectrofluorometer (Edison, NJ). Excitation wavelength was set to 334 nm; emission was monitored at 384 nm; excitation and emission slits were set to 1 nm band pass resolution. Temperature was kept at 10 °C and controlled with a water bath throughout the experiment. Data was acquired every 1 minute for the first 25 minutes, following by 30 minute intervals until fluorescence signal plateaued and equilibrium achieved.

On the set-up of data set [3]: method as in PMID 26626387. The conditions noted are these: in kJ/mol; cited from earlier work.
A further data set concerns RHCC-tetrabrachion. Put plainly: GC-MS/MS uptake of PAHs. In kind it is binding, Staphylothermus marinus. Particulars: result in words.

`c1ccc2cc3ccccc3cc2c1` [Anthracene, anthracene]: on RHCC-NT [1], the Kd was 8.7 ± 1.5 µM and the “∆G, molar Gibbs free energy for the ligand binding” value (“∆G, molar Gibbs free energy” for short) was -6.86 kcal/mol.
Turning to `c1cc2c3c(cccc3c1)CC2` [Acenaphthene, acenaphthene], at RHCC-NT [1], the equilibrium dissociation constant (Kd) was determined as 8.9 ± 1.8 µM and the “∆G, molar Gibbs free energy” value is -6.84 kcal/mol. Besides, at RHCC-NT [2], the “time to reach equilibrium” value is reported as “ca. 1 min”.
The molecule `c1ccc2ccccc2c1` [Naphthalene, naphthalene] came in with an equilibrium dissociation constant (Kd) at RHCC-NT [1] of 17 ± 1.4 µM. The “Fluorescence intensity at 350 nm (λexc = 275 nm)” value came out at 708292 on RHCC-NT [1] ([RHCC] 0 µM); 709824 on RHCC-NT [1] ([RHCC] 0.12 µM); 730572 at RHCC-NT [1] ([RHCC] 0.24 µM); 733694 on RHCC-NT [1] ([RHCC] 0.48 µM); 780644 on RHCC-NT [1] ([RHCC] 0.96 µM); 906120 at RHCC-NT [1] ([RHCC] 1.9 µM). Moreover, the “Fluorescence intensity at 350 nm (λexc = 275 nm)” value is recorded as 1003650 at RHCC-NT [1] ([RHCC] 3.8 µM); 1177910 at RHCC-NT [1] ([RHCC] 7.7 µM); 1420260 at RHCC-NT [1] ([RHCC] 15.4 µM); 1845910 on RHCC-NT [1] ([RHCC] 30.75 µM); 1873130 at RHCC-NT [1] ([RHCC] 61.5 µM). The “∆G, molar Gibbs free energy” value on RHCC-NT [1] was -6.48 kcal/mol. Moreover, the “time to reach equilibrium” value at RHCC-NT [2] was “ca. 1 min”. Also, the “ΔGsolv, measured solvation free energy” value in data set [3] is −10.0 ± 2.5.
For `c1cc2ccc3cccc4ccc(c1)c2c34` [Pyrene, pyrene], on RHCC-NT [1], the Kd is 30 ± 2 µM and the “∆G, molar Gibbs free energy” value was -6.12 kcal/mol. Moreover, the average uptake rate at RHCC-NT [2] (10 °C) was 1.59 nmol/hr∙mol RHCC-NT. Further, the “time for complete uptake by RHCC-NT” value on RHCC-NT [2] (10 °C, emission at 384 nm) is “around 80 hrs”. The “Py-value (ratio of fluorescence emission intensities of Band I/III)” value on RHCC-NT [2] (RHCC-NT:Pyrene time = 0, 10 °C) is 1.7288. Moreover, at RHCC-NT [2] (RHCC-NT:Pyrene time = 75 hrs, 10 °C), the “Py-value (ratio of fluorescence emission intensities of Band I/III)” value is given as 0.6395. In data set [3], the “ΔGsolv, measured solvation free energy” value is recorded as −18.91 ± 2.5.
As to `c1ccc2cc3c(ccc4ccccc43)cc2c1` [benz(a)anthracene], the “binding to RHCC-NT / concentration dependent fluorescence changes” value at RHCC-NT [1] is “did not exhibit any concentration dependent fluorescence changes”. Besides, the “uptake by RHCC-tetrabrachion” value in the data set on RHCC-tetrabrachion was “uptake”.
For `c1ccc2c(c1)ccc1ccccc12` [phenanthrene], the “binding to RHCC-NT / concentration dependent fluorescence changes” value at RHCC-NT [1] is given as “did not exhibit any concentration dependent fluorescence changes”. The “uptake by RHCC-tetrabrachion” value in the data set on RHCC-tetrabrachion is on record as “uptake”. Besides, the “ΔGsolv, measured solvation free energy” value in data set [3] is listed as −16.2 ± 2.5.
Turning to `c1ccc2c(c1)Cc1ccccc1-2` [Fluorene, fluorene], on RHCC-NT [1], the equilibrium dissociation constant (Kd) is 5.4 ± 1.6 µM and the “∆G, molar Gibbs free energy” value is -7.15 kcal/mol.
The matching figures for `c1ccc2c(c1)ccc1c3ccccc3ccc21` [Chrysene, chrysene]: 27 ± 5.6 µM and -6.19 kcal/mol.
Turning to `C1=Cc2cccc3cccc1c23` [Acenaphthylene, acenaphthylene], on RHCC-NT [1], the equilibrium dissociation constant (Kd) amounted to 32 ± 7 µM and the “∆G, molar Gibbs free energy” value was -6.09 kcal/mol. Also, on RHCC-NT [2], the “time to reach equilibrium” value is on record as “ca. 1 min”.
`c1ccc2c(c1)-c1cccc3cccc-2c13` [fluoranthene]: the “binding to RHCC-NT / concentration dependent fluorescence changes” value on RHCC-NT [1] is “did not exhibit any concentration dependent fluorescence changes”. Besides, the “uptake by RHCC-tetrabrachion” value in the data set with RHCC-tetrabrachion is “uptake”.

The term Kd denotes the concentration at which binding is half-saturated. A high value points to a looser complex.
